For the experiment, the system named is P388 leukemia ip, CD2F1 mice, survival T/C. The experiment can be described thus: NCI In Vivo Anticancer Drug Screen. Data for tumor model P388 Leukemia (intraperitoneal) in CD2F1 (CDF1) mice. The following applies: endpoint: median survival time, higher = longer survival. An outline of the steps:
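Mice carrying the transplanted tumor received test compound or vehicle. Survival was recorded in each group, and the value is the treated-group measurement divided by that of the vehicle-treated control group.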

Where [1] appears, read: dose: 50.0 mg/kg/injection, schedule: Q01DX005 (ip), vehicle: Klucel (hydroxypropylcellulose) (HPC).
The mark [2] stands for this setting: dose: 100.0 mg/kg/injection, schedule: Q01DX005 (ip), vehicle: Klucel (hydroxypropylcellulose) (HPC).
The mark [3] stands for this setting: dose: 50.0 mg/kg/injection, schedule: Q01DX009 (ip), vehicle: saline with Tween-80.
The mark [4] stands for this setting: dose: 60.0 mg/kg/injection, schedule: Q01DX005 (ip), vehicle: saline with Tween-80.
The mark [5] stands for this setting: dose: 120.0 mg/kg/injection, schedule: Q01DX005 (ip), vehicle: saline with Tween-80.
Where [6] appears, read: dose: 50.0 mg/kg/injection, schedule: Q01DX009 (ip), vehicle: Klucel (hydroxypropylcellulose) (HPC).
[7] abbreviates: dose: 100.0 mg/kg/injection, schedule: Q01DX009 (ip), vehicle: Klucel (hydroxypropylcellulose) (HPC).
The mark [8] stands for this setting: dose: 200.0 mg/kg/injection, schedule: Q01DX009 (ip), vehicle: Klucel (hydroxypropylcellulose) (HPC).
The mark [9] stands for this setting: dose: 50.0 mg/kg/injection, schedule: Q01DX005 (ip), vehicle: saline with Tween-80.
[10] abbreviates: dose: 100.0 mg/kg/injection, schedule: Q01DX005 (ip), vehicle: saline with Tween-80.
Where [11] appears, read: dose: 200.0 mg/kg/injection, schedule: Q01DX005 (ip), vehicle: saline with Tween-80.
Setting [12] is: dose: 50.0 mg/kg/injection, schedule: Q01DX001 (ip), vehicle: saline with Tween-80.
The mark [13] stands for this setting: dose: 100.0 mg/kg/injection, schedule: Q01DX001 (ip), vehicle: saline with Tween-80.
[14] abbreviates: dose: 12.5 mg/kg/injection, schedule: Q01DX009 (ip), vehicle: saline with Tween-80.
[15] abbreviates: dose: 25.0 mg/kg/injection, schedule: Q01DX009 (ip), vehicle: saline with Tween-80.

“And” between values parts separate entries of the source, which are not always exact repeats. Equal values may be shown once. Inconclusive results and toxic doses are left out.

On to `CN(Cc1cnc2nc(N)nc(N)c2n1)c1ccc(C(=O)NC(CCC(=O)OC(C)(C)C)C(=O)O)cc1` (configuration not stated), for which the T/C (dose: 5.0 mg/kg/injection, schedule: Q03HX024 (ip), vehicle: sodium bicarbonate) is 156 % of control; the T/C (dose: 10.0 mg/kg/injection, schedule: Q03HX024 (ip), vehicle: sodium bicarbonate) was 182 % of control; the T/C (dose: 20.0 mg/kg/injection, schedule: Q03HX024 (ip), vehicle: sodium bicarbonate) is 230 % of control; the T/C (dose: 20.0 mg/kg/injection, schedule: Q04DX003 (ip), vehicle: sodium bicarbonate) was 122 % of control; the T/C (dose: 40.0 mg/kg/injection, schedule: Q03HX024 (ip), vehicle: sodium bicarbonate) was 269 % of control; the T/C (dose: 80.0 mg/kg/injection, schedule: Q03HX024 (ip), vehicle: sodium bicarbonate) was 153 % of control.

On to `CN(C)C(=S)/N=C1/SCS(=O)(=O)N1c1ccccc1`, for which the T/C was 98 % of control (dose: 50.0 mg/kg/injection, schedule: Q04DX003 (ip), vehicle: saline with Tween-80); 104 % of control (dose: 100.0 mg/kg/injection, schedule: Q04DX003 (ip), vehicle: saline with Tween-80); 95 % of control (dose: 200.0 mg/kg/injection, schedule: Q04DX003 (ip), vehicle: saline with Tween-80).

As to `COC(=O)c1ccc(N2C(=O)C=CC2=O)cc1`, the T/C (dose: 0.75 mg/kg/injection, schedule: Q01DX009 (ip), vehicle: saline with Tween-80) is 100 % of control; the T/C (dose: 1.5 mg/kg/injection, schedule: Q01DX009 (ip), vehicle: saline with Tween-80) was 100 % of control; the T/C (dose: 3.0 mg/kg/injection, schedule: Q01DX009 (ip), vehicle: saline with Tween-80) was 120 % of control.

On to `CC(=O)O/C=C(/C=C/OC(C)=O)C(C/C=C(\C)C#CC=C(C)C)OC(C)=O` (configuration not stated), for which the T/C runs as follows: (dose: 5.31 mg/kg/injection, schedule: Q01DX005 (ip), vehicle: saline with Tween-80) 98 % of control; (dose: 10.62 mg/kg/injection, schedule: Q01DX005 (ip), vehicle: saline with Tween-80) 103 % of control; (dose: 21.25 mg/kg/injection, schedule: Q01DX005 (ip), vehicle: saline with Tween-80) 103 % of control and 94 % of control; (dose: 42.5 mg/kg/injection, schedule: Q01DX005 (ip), vehicle: saline with Tween-80) 87 % of control.

Take `COc1ccc(-c2cc(=O)c3c(O)cc(O)cc3o2)cc1Oc1ccc(-c2cc(=O)c3c(O)cc(O)cc3o2)cc1`: the T/C reads like this: (dose: 60.0 mg/kg/injection, schedule: Q01DX005 (ip), vehicle: Klucel (hydroxypropylcellulose) (HPC)) 96 % of control; (dose: 120.0 mg/kg/injection, schedule: Q01DX005 (ip), vehicle: Klucel (hydroxypropylcellulose) (HPC)) 96 % of control; (dose: 240.0 mg/kg/injection, schedule: Q01DX005 (ip), vehicle: Klucel (hydroxypropylcellulose) (HPC)) 88 % of control.

Turning to `NC(Cc1ccc(O)cc1)C(=O)N/N=C/c1ccccc1Cl` (configuration not stated), the T/C by setting is: under setting [1], 100 % of control; under setting [2], 106 % of control.

On to `COC1/C=C/OC2(C)Oc3c(C)c(O)c4c(O)c(c(CNCc5ccccc5)c(O)c4c3C2=O)NC(=O)/C(C)=C\C=C\C(C)C(O)C(C)C(O)C(C)C(OC(C)=O)C1C` (configuration not stated), for which the T/C was 92 % of control (dose: 25.0 mg/kg/injection, schedule: Q01DX009 (ip), vehicle: other); 91 % of control (dose: 50.0 mg/kg/injection, schedule: Q01DX009 (ip), vehicle: other); 88 % of control (dose: 100.0 mg/kg/injection, schedule: Q01DX009 (ip), vehicle: other); 89 % of control (dose: 400.0 mg/kg/injection, schedule: Q01DX009 (ip), vehicle: other).

For `Cc1cc(C)c(OC2=C(c3c(C)cc(C)cc3C)C(=O)c3ccccc32)c(C)c1`, the T/C runs as follows: under setting [3], 94 % of control; (dose: 100.0 mg/kg/injection, schedule: Q01DX009 (ip), vehicle: saline with Tween-80) 94 % of control; (dose: 200.0 mg/kg/injection, schedule: Q01DX009 (ip), vehicle: saline with Tween-80) 86 % of control.

On to `Cc1cc(N=[N+]=[N-])c2ccc(Cl)cc2n1`, for which the T/C runs as follows: under setting [4], 94 % of control; under setting [5], 100 % of control.

Consider `CSC(=S)n1nc(-c2ccccc2)c(N=Nc2ccccc2[N+](=O)[O-])c1-c1ccccc1`, for which the T/C reads like this: (dose: 100.0 mg/kg/injection, schedule: Q04DX002 (ip), vehicle: Klucel (hydroxypropylcellulose) (HPC)) 105 % of control; (dose: 200.0 mg/kg/injection, schedule: Q04DX002 (ip), vehicle: Klucel (hydroxypropylcellulose) (HPC)) 97 % of control.

As for `COC(=O)c1cc(OC)nc(OC)n1`, the T/C is 108 % of control (dose: 12.5 mg/kg/injection, schedule: Q01DX009 (ip), vehicle: distilled water + Tween-80); 96 % of control (dose: 25.0 mg/kg/injection, schedule: Q01DX009 (ip), vehicle: distilled water + Tween-80); 105 % of control (dose: 50.0 mg/kg/injection, schedule: Q01DX009 (ip), vehicle: distilled water + Tween-80); 99 % of control (dose: 100.0 mg/kg/injection, schedule: Q01DX009 (ip), vehicle: distilled water + Tween-80).

Turning to `OC12CCC(c3ccccc3)(CC1)CC2`, the T/C was 104 % of control under setting [6], 100 % of control under setting [7] and 100 % of control under setting [8].

For `O=c1cccc[nH]1`, the T/C was 104 % of control and 112 % of control and 121 % of control (dose: 50.0 mg/kg/injection, schedule: Q01DX009 (ip), vehicle: saline); 107 % of control and 109 % of control and 110 % of control (dose: 100.0 mg/kg/injection, schedule: Q01DX009 (ip), vehicle: saline); 104 % of control and 105 % of control and 118 % of control (dose: 200.0 mg/kg/injection, schedule: Q01DX009 (ip), vehicle: saline); 108 % of control and 96 % of control (dose: 400.0 mg/kg/injection, schedule: Q01DX009 (ip), vehicle: saline); 121 % of control (dose: 600.0 mg/kg/injection, schedule: Q01DX009 (ip), vehicle: saline).

As for `c1ccc(C2=NN=C(c3ccccc3)N(c3ccccc3)N2)cc1`, the T/C reads like this: under setting [9], 105 % of control; under setting [10], 97 % of control; under setting [11], 97 % of control.

In the case of `Cc1ccnc(-n2c(N)cc(=O)[nH]c2=S)c1`, the T/C was 86 % of control under setting [12]; 118 % of control under setting [13]; 100 % of control (dose: 200.0 mg/kg/injection, schedule: Q01DX001 (ip), vehicle: saline with Tween-80).

On to `CCCCCC(CN(C)C)/C(CC(NO)c1ccccc1)=N\O` (configuration not stated), for which the T/C under setting [6] was 106 % of control and the T/C under setting [7] was 106 % of control.

Turning to `O=C1/C(=C\O)C2CCC3CCC4CC1C342` (configuration not stated), the T/C by setting is: (dose: 25.0 mg/kg/injection, schedule: Q01DX005 (ip), vehicle: Klucel (hydroxypropylcellulose) (HPC)) 103 % of control; under setting [1], 97 % of control; under setting [2], 107 % of control.

`Nc1ccc(C2C(=[N+]([O-])[O-])C=C([N+](=O)[O-])c3[nH]o[n+](=O)c32)cc1` (configuration not stated): the T/C under setting [12] is 100 % of control and the T/C under setting [13] is 100 % of control.

As to `CN(C)c1ccc(/C=C/c2ccnc3cc(Cl)ccc23)cc1`, the T/C under setting [14] is 106 % of control, the T/C under setting [15] was 116 % of control and the T/C under setting [3] was 119 % of control.

As for `CCCCN(CCCC)CC(O)c1cc(-c2ccc(C(F)(F)F)cc2)nc(-c2ccc(C(F)(F)F)cc2)c1` (configuration not stated), the T/C is, setting by setting: (dose: 6.25 mg/kg/injection, schedule: Q01DX009 (ip), vehicle: saline with Tween-80) 109 % of control; under setting [14], 109 % of control; under setting [15], 100 % of control.

With `CC1CC(C)NC(N=S(=O)(O)c2ccc(N)cc2)[N-]1.[Ag+]` (configuration not stated), the T/C was 106 % of control under setting [6], 100 % of control under setting [7] and 94 % of control under setting [8].

As for `CN=C(N/N=C(C)\C=N\NC(=NC)N(C)C)N(C)C`, the T/C is 109 % of control under setting [9], 105 % of control under setting [10] and 105 % of control under setting [11].

As for `COc1cc2c(cc1OC)C(C#N)(C(c1ccccc1)c1ccccc1)N(C(=O)c1ccccc1)C=C2` (configuration not stated), the T/C under setting [4] was 100 % of control; the T/C under setting [5] is 100 % of control; the T/C (dose: 240.0 mg/kg/injection, schedule: Q01DX005 (ip), vehicle: saline with Tween-80) was 96 % of control.

Source of the values: PubChem BioAssay AID330 (DTP/NCI, 2004).
